Where a name gives a salt, the structure may show the parent alone. Bounds are passed on as bounds.

This passage reports IC50 results from US8304419B2, “Chemical compounds” (priority 2007, dated 2012).

The subject of the first assay is HIV wild type (WTRVA). The experiment in a line: HeLa cell assay, wild type virus (WTRVA). Also on record: scale not given here. Conditions: Human immunodeficiency virus 1, HeLa, HeLa cell assay; read-out: IC50 against WTRVA. In kind it is cell-based, HIV-1.
With `N#Cc1cc(Cl)cc(Oc2c(Cl)ccc(CNC(=O)c3[nH]ccc3Cl)c2F)c1` [Example 128, 3-chloro-N-({4-chloro-3-[(3-chloro-5-cyanophenyl)oxy]-2-fluorophenyl}methyl)-1H-pyrrole-2-carboxamide], the IC50 was under 10 nM.

`N#Cc1cc(Cl)cc(Oc2c(Cl)ccc(CNC(=O)c3[nH]c(N)nc3Br)c2F)c1` [Example 235, 2-amino-4-bromo-N-({4-chloro-3-[(3-chloro-5-cyanophenyl)oxy]-2-fluorophenyl}methyl)-1H-imidazole-5-carboxamide trifluoroacetate]: the IC50 was under 10 nM.

Regarding `Cc1nc(Cl)c(C(=O)NCc2cc(C#N)c(Cl)c(Oc3cc(Cl)cc(C#N)c3)c2F)[nH]1` [Example 304, 4-chloro-N-({4-chloro-3-[(3-chloro-5-cyanophenyl)oxy]-5-cyano-2-fluorophenyl}methyl)-2-methyl-1H-imidazole-5-carboxamide trifluoroacetate], the IC50 is under 10 nM.

Still in this assay, the particulars now being: Human immunodeficiency virus 1, HeLa, HeLa-CD4-LTR-β-gal cells, wild type virus; read-out: WTRVA activity level.
For `COc1ccc2[nH]c3c(c2c1)CCN(Cc1ccc(Cl)c(Oc2cc(Cl)cc(C#N)c2)c1F)C3=O` [Example 38, 3-chloro-5-[(6-chloro-2-fluoro-3-{[6-(methyloxy)-1-oxo-1,3,4,9-tetrahydro-2H-β-carbolin-2-yl]methyl}phenyl)oxy]benzonitrile], the IC50 was 10 to 1000 nM.

Turning to `Cc1nc(Cl)c(C(=O)NCc2ccc(Cl)c(Oc3cc(Cl)cc(C#N)c3)c2F)[nH]1` [Example 137, 4-chloro-N-({4-chloro-3-[(3-chloro-5-cyanophenyl)oxy]-2-fluorophenyl}methyl)-2-methyl-1H-imidazole-5-carboxamide], the IC50 is under 10 nM.

As for `COc1ccc2c(C(=O)NCc3ccc(Cl)c(Oc4cc(Cl)cc(C#N)c4)c3F)c[nH]c2c1` [Example 18, N-({4-chloro-3-[(3-chloro-5-cyanophenyl)oxy]-2-fluorophenyl}methyl)-6-(methyloxy)-1H-indole-3-carboxamide], the IC50 is 10 to 1000 nM.

As for `Cc1nc2ccccn2c1C(=O)NCc1ccc(Cl)c(Oc2cc(Cl)cc(C#N)c2)c1F` [Example 97, N-({4-chloro-3-[(3-chloro-5-cyanophenyl)oxy]-2-fluorophenyl}methyl)-2-methylimidazo[1,2-a]pyridine-3-carboxamide trifluoroacetate], the IC50 is under 10 nM.

For the molecule `N#Cc1cc(Cl)cc(Oc2c(Cl)ccc(CNC(=O)c3[nH]ccc3Cl)c2F)c1` [Example 128, 3-chloro-N-({4-chloro-3-[(3-chloro-5-cyanophenyl)oxy]-2-fluorophenyl}methyl)-1H-pyrrole-2-carboxamide], the IC50 was under 10 nM.

`N#Cc1cc(Cl)cc(Oc2c(Cl)ccc(CNC(=O)c3cc4ccc(O)cc4[nH]3)c2F)c1` [Example 36, N-({4-chloro-3-[(3-chloro-5-cyanophenyl)oxy]-2-fluorophenyl}methyl)-6-hydroxy-1H-indole-2-carboxamide]: the IC50 is under 10 nM.

Regarding `Cc1ccc2[nH]c(C(=O)NCc3ccc(Cl)c(Oc4cc(Cl)cc(C#N)c4)c3F)c(C)c2c1` [Example 52, N-({4-chloro-3-[(3-chloro-5-cyanophenyl)oxy]-2-fluorophenyl}methyl)-3,5-dimethyl-1H-indole-2-carboxamide trifluoroacetate], the IC50 fell in the range of 10 to 1000 nM.

Consider `N#Cc1cc(Cl)cc(Oc2c(Cl)ccc(CNC(=O)c3nc4ccc([N+](=O)[O-])cc4[nH]3)c2F)c1` [Example 124, N-({4-chloro-3-[(3-chloro-5-cyanophenyl)oxy]-2-fluorophenyl}methyl)-5-nitro-1H-benzimidazole-2-carboxamide], for which the IC50 fell in the range of 10 to 1000 nM.

Turning to `N#Cc1cc(Cl)cc(Oc2c(Cl)ccc(CNC(=O)c3csnn3)c2F)c1` [Example 90, N-({4-chloro-3-[(3-chloro-5-cyanophenyl)oxy]-2-fluorophenyl}methyl)-1,2,3-thiadiazole-4-carboxamide], the IC50 was under 10 nM.

Take `CC(C)(C)OC(=O)N1CCC[C@H]1C(=O)Nc1ccc2[nH]c(C(=O)NCc3ccc(Cl)c(Oc4cc(Cl)cc(C#N)c4)c3F)cc2c1` [Example 117, 1,1-dimethylethyl (2S)-2-{[(2-{[({4-chloro-3-[(3-chloro-5-cyanophenyl)oxy]-2-fluorophenyl}methyl)amino]carbonyl}-1H-indol-5-yl)amino]carbonyl}-1-pyrrolidinecarboxylate]: the IC50 was under 10 nM.
